# Data as given in patent US7745459B2, “Quinolizinone compound and use thereof as HIV integrase inhibitor” (Japan Tobacco Inc., priority 2004, dated 2010).
# Molecular target: T1, HIV integrase (Human immunodeficiency virus type 1 group M subtype B, UniProt P12497, F1332H)
# T1 construct: HIV integrase full length gene; made in house; host or cells: Escherichia coli BL21 (DE3)
# Assay: Determination of enzyme (HIV integrase) inhibitory activity
# Type: biochemical
# Details: recombinant integrase protein (phenylalanine at codon 185 substituted by histidine); donor/target DNA, absorbance at 450 nm; read-out: Anti-integrase activity (IC50 value)
# Source text: The following explains evaluation methods of the HIV integrase inhibitory activity of the compound of the present invention.
# HIV integrase full length gene (J. Virol., 67, 425-437 (1993)) in which phenylalanine at codon 185 was substituted by histidine, was inserted between the restriction enzyme NdeI and XhoI sites of plasmid pET21a(+) (Novagen), whereby an integrase expression vector pET21a-INH was constructed.
# Escherichia coli recombinant BL21 (DE3) transformed with plasmid pET21a-INH obtained in (i) was shake cultured at 37° C. in a liquid medium containing ampicillin. When the culture reached the logarithmic growth phase, isopropyl-β-D-thiogalactopyranoside was added to promote expression of integrase gene. The culture was continued for 3 hr to promote accumulation of the integrase protein. The recombinant E. coli was collected in pellets by centrifugal separation and preserved at −80° C.
# The E. coli was suspended in Lysis buffer (20 mM HEPES (pH 7.5), 5 mM DTT, 10 mM CHAPS, 10% glycerol) containing 1 M sodium chloride and subjected to repeat pressurization and depressurization for rupture, and centrifugal separation at 4° C., 40,000×g, 60 min to recover a water-soluble fraction (supernatant). This was diluted 10-fold with Lysis buffer free of sodium chloride, mixed with SP-Sepharose (Pharmacia Corporation) and stirred at 4° C. for 60 min to allow adsorption of integrase protein to the resin. The resin was washed with Lysis buffer containing 100 mM sodium chloride and the integrase protein was eluted with Lysis buffer containing 1 M sodium chloride.
# The eluted integrase protein solution was subjected to a Superdex 75 (Pharmacia Corporation) column for gel filtration. The protein was eluted with Lysis buffer containing 1 M sodium chloride.
# The obtained fractions of the integrase protein were collected and preserved at −80° C.
# The following DNA synthesized by Greiner was dissolved in TE buffer (10 mM Tris-hydrochloric acid (pH 8.0), 1 mM EDTA) and mixed with donor DNA, target DNA, and each complementary strand (+ and − strands) to 1 μM. The mixture was heated at 95° C. for 5 min, 80° C. for 10 min, 70° C. for 10 min, 60° C. for 10 min, 50° C. for 10 min and 40° C. for 10 min and kept at 25° C. to give a double stranded DNA, which was used for the test.
# The donor DNA was diluted with TE buffer to 10 nM, of which 50 μl was added to each well of streptavidin-coated microtiter plate (Roche) and allowed to adsorb at 37° C. for 60 min. The plate was washed with phosphate buffer (Dulbecco's PBS, Sanko Junyaku Co., Ltd.) containing 0.1% Tween 20 and phosphate buffer. Then, a reaction mixture (70 μl) having the following composition, a test substance (10 μl) diluted with the reaction mixture and 100 μg/ml integrase protein (10 μl) were added to each well and reacted at 37° C. for 60 min. Composition of the reaction mixture: 30 mM MOPS (3-morpholinopropanesulfonic acid), 5 mM magnesium chloride, 3 mM DTT (dithiothreitol), 0.1 mg/ml BSA (bovine serum albumin), 5% glycerol, 10% DMSO (dimethyl sulfoxide), 0.01% Tween 20.
# Then, 50 nM target DNA (10 μl) was added, and the mixture was reacted at 37° C. for 10 min and washed with phosphate buffer containing 0.1% Tween 20 to stop the reaction.
# Then, 100 mU/ml peroxidase labeled anti-digoxigenin antibody solution (Roche, 100 μl) was added, and the mixture was reacted at 37° C. for 60 min, followed by washing with phosphate buffer containing 0.1% Tween 20.
# A peroxidase color solution (Bio Rad, 100 μl) was added and allowed to react at room temperature for 4 min. The color reaction was stopped by adding 1N sulfuric acid (100 μl). The absorbance at 450 nm was measured. […]
row,Compound,IC50
1,"O=C(O)c1ccc2ccc(Cc3cccc(Cl)c3F)cn2c1=O [Example 2, 7-(3-chloro-2-fluorobenzyl)-4-oxo-4H-quinolizine-3-carboxylic acid]",100 to 1000 nM
2,"CCc1cc(C(=O)O)c(=O)n2cc(Cc3cccc(Cl)c3F)ccc12 [Example 4, 7-(3-chloro-2-fluorobenzyl)-1-ethyl-4-oxo-4H-quinolizine-3-carboxylic acid]",10 to 100 nM
3,"O=C(O)c1cc(CCO)c2ccc(Cc3cccc(Cl)c3F)cn2c1=O [Example 7, 7-(3-chloro-2-fluorobenzyl)-1-(2-hydroxyethyl)-4-oxo-4H-quinolizine-3-carboxylic acid]",10 to 100 nM
4,"COc1cc2c([C@H](CO)C(C)C)cc(C(=O)O)c(=O)n2cc1Cc1cccc(Cl)c1F [Example 10, 7-(3-chloro-2-fluorobenzyl)-1-((R)-1-hydroxymethyl-2-methylpropyl)-8-methoxy-4-oxo-4H-quinolizine-3-carboxylic acid]",< 10 nM
5,"O=C(O)c1ccc2ccc(Cc3ccccc3)cn2c1=O [Example 11, 7-benzyl-4-oxo-4H-quinolizine-3-carboxylic acid]",1000 to 10000 nM
6,"CCCc1cc(C(=O)O)c(=O)n2cc(Cc3cccc(Cl)c3F)ccc12 [Example 12, 7-(3-chloro-2-fluorobenzyl)-4-oxo-1-propyl-4H-quinolizine-3-carboxylic acid]",10 to 100 nM
7,"CC(C)c1cc(C(=O)O)c(=O)n2cc(Cc3cccc(Cl)c3F)ccc12 [Example 13, 7-(3-chloro-2-fluorobenzyl)-1-isopropyl-4-oxo-4H-quinolizine-3-carboxylic acid]",10 to 100 nM
8,"C[C@@H](CO)c1cc(C(=O)O)c(=O)n2cc(Cc3cccc(Cl)c3F)ccc12 [Example 14, 7-(3-chloro-2-fluorobenzyl)-1-((R)-2-hydroxy-1-methylethyl)-4-oxo-4H-quinolizine-3-carboxylic acid]",10 to 100 nM
9,"CC(C)C(CO)c1cc(C(=O)O)c(=O)n2cc(Cc3cccc(Cl)c3F)ccc12 (centres unmarked) [Example 15, 7-(3-chloro-2-fluorobenzyl)-1-(1-hydroxymethyl-2-methylpropyl)-4-oxo-4H-quinolizine-3-carboxylic acid]",10 to 100 nM
10,"CC(C)(C)[C@@H](CO)c1cc(C(=O)O)c(=O)n2cc(Cc3cccc(Cl)c3F)ccc12 [Example 16, 7-(3-chloro-2-fluorobenzyl)-1-((R)-1-hydroxymethyl-2,2-dimethylpropyl)-4-oxo-4H-quinolizine-3-carboxylic acid]",< 10 nM
11,"COc1cc2c([C@H](CO)C(C)(C)C)cc(C(=O)O)c(=O)n2cc1Cc1cccc(Cl)c1F [Example 17, 7-(3-chloro-2-fluorobenzyl)-1-((R)-1-hydroxymethyl-2,2-dimethylpropyl)-8-methoxy-4-oxo-4H-quinolizine-3-carboxylic acid]",< 10 nM
12,"O=C(O)c1cc(CO)c2ccc(Cc3cccc(Cl)c3F)cn2c1=O [Example 18, 7-(3-chloro-2-fluorobenzyl)-1-hydroxymethyl-4-oxo-4H-quinolizine-3-carboxylic acid]",10 to 100 nM
13,"COCc1cc(C(=O)O)c(=O)n2cc(Cc3cccc(Cl)c3F)ccc12 [Example 19, 7-(3-chloro-2-fluorobenzyl)-1-methoxymethyl-4-oxo-4H-quinolizine-3-carboxylic acid]",100 to 1000 nM
14,"NCc1cc(C(=O)O)c(=O)n2cc(Cc3cccc(Cl)c3F)ccc12 [Example 20, 1-aminomethyl-7-(3-chloro-2-fluorobenzyl)-4-oxo-4H-quinolizine-3-carboxylic acid hydrochloric acid]",100 to 1000 nM
15,"CNCc1cc(C(=O)O)c(=O)n2cc(Cc3cccc(Cl)c3F)ccc12 [Example 21, 7-(3-chloro-2-fluorobenzyl)-1-methylaminomethyl-4-oxo-4H-quinolizine-3-carboxylic acid]",100 to 1000 nM
16,"CC(=O)NCc1cc(C(=O)O)c(=O)n2cc(Cc3cccc(Cl)c3F)ccc12 [Example 22, 1-(acetylaminomethyl)-7-(3-chloro-2-fluorobenzyl)-4-oxo-4H-quinolizine-3-carboxylic acid]",10 to 100 nM
17,"CS(=O)(=O)NCc1cc(C(=O)O)c(=O)n2cc(Cc3cccc(Cl)c3F)ccc12 [Example 23, 7-(3-chloro-2-fluorobenzyl)-1-(methylsulfonylaminomethyl)-4-oxo-4H-quinolizine-3-carboxylic acid]",1000 to 10000 nM
18,"COC(=O)NCc1cc(C(=O)O)c(=O)n2cc(Cc3cccc(Cl)c3F)ccc12 [Example 24, 7-(3-chloro-2-fluorobenzyl)-1-(methoxycarbonylaminomethyl)-4-oxo-4H-quinolizine-3-carboxylic acid]",10 to 100 nM
19,"NC(=O)Cc1cc(C(=O)O)c(=O)n2cc(Cc3cccc(Cl)c3F)ccc12 [Example 26, 1-carbamoylmethyl-7-(3-chloro-2-fluorobenzyl)-4-oxo-4H-quinolizine-3-carboxylic acid]",10 to 100 nM
20,"O=C(O)c1cc(NCCO)c2ccc(Cc3cccc(Cl)c3F)cn2c1=O [Example 27, 7-(3-chloro-2-fluorobenzyl)-1-(2-hydroxyethylamino)-4-oxo-4H-quinolizine-3-carboxylic acid]",100 to 1000 nM
21,"CS(=O)(=O)Nc1cc(C(=O)O)c(=O)n2cc(Cc3cccc(Cl)c3F)ccc12 [Example 29, 7-(3-chloro-2-fluorobenzyl)-1-methylsulfonylamino-4-oxo-4H-quinolizine-3-carboxylic acid]",100 to 1000 nM
22,"N#Cc1cc(C(=O)O)c(=O)n2cc(Cc3cccc(Cl)c3F)ccc12 [Example 33, 7-(3-chloro-2-fluorobenzyl)-1-cyano-4-oxo-4H-quinolizine-3-carboxylic acid]",10 to 100 nM
23,"O=C(O)c1cc(CCO)c2ncc(Cc3cccc(Cl)c3F)cn2c1=O [Example 34, 3-(3-chloro-2-fluorobenzyl)-9-(2-hydroxyethyl)-6-oxo-6H-pyrido[1,2-a]pyrimidine-7-carboxylic acid]",100 to 1000 nM
24,"CC(C)(C)OC(=O)NCc1cc(C(=O)O)c(=O)n2cc(Cc3cccc(Cl)c3F)ccc12 [Example 35, 1-(tert-butoxycarbonylamino)methyl-7-(3-chloro-2-fluorobenzyl)-4-oxo-4H-quinolizine-3-carboxylic acid]",10 to 100 nM
25,"O=C(O)Cc1cc(C(=O)O)c(=O)n2cc(Cc3cccc(Cl)c3F)ccc12 [Example 36, 1-carboxymethyl-7-(3-chloro-2-fluorobenzyl)-4-oxo-4H-quinolizine-3-carboxylic acid]",10 to 100 nM
26,"CC(C)(C)C(=O)NCc1cc(C(=O)O)c(=O)n2cc(Cc3cccc(Cl)c3F)ccc12 [Example 37, 7-(3-chloro-2-fluorobenzyl)-1-(2,2-dimethylpropionylamino)methyl-4-oxo-4H-quinolizine-3-carboxylic acid]",10 to 100 nM
27,"CN(C)Cc1cc(C(=O)O)c(=O)n2cc(Cc3cccc(Cl)c3F)ccc12 [Example 38, 7-(3-chloro-2-fluorobenzyl)-1-dimethylaminomethyl-4-oxo-4H-quinolizine-3-carboxylic acid]",100 to 1000 nM
28,"O=C(CO)NCc1cc(C(=O)O)c(=O)n2cc(Cc3cccc(Cl)c3F)ccc12 [Example 39, 7-(3-chloro-2-fluorobenzyl)-1-[(2-hydroxyacetylamino)methyl]-4-oxo-4H-quinolizine-3-carboxylic acid]",10 to 100 nM
29,"COCC(=O)NCc1cc(C(=O)O)c(=O)n2cc(Cc3cccc(Cl)c3F)ccc12 [Example 40, 7-(3-chloro-2-fluorobenzyl)-1-[(2-methoxyacetylamino)methyl]-4-oxo-4H-quinolizine-3-carboxylic acid]",10 to 100 nM
